Reference: patent US7902354B2, “Lapachone compounds and methods of use thereof” (ArQule, Inc., priority 2006, dated 2011)

| SMILES | melting point |
| --- | --- |
| O=C1C(=O)c2ccccc2C2=C1SCC1(CCCN(C(=O)Oc3cccc(C(F)(F)F)c3)CC1)O2 (centres unmarked) | 111 to 114 °C |
| O=C1C(=O)c2ccccc2C2=C1SCC1(CCCN(C(=O)Oc3cccc(C(F)(F)F)c3)C1)O2 (centres unmarked) | 95 to 99 °C |
| COc1ccc2c(c1)C(=O)C(=O)C1=C2OC2(CCN(C(=O)Oc3cccc(C(F)(F)F)c3)CC2)CS1 | 233 to 234 °C |
| O=C1C(=O)c2ccc(-c3ccccc3)cc2C2=C1SCC1(CCN(C(=O)Oc3cccc(C(F)(F)F)c3)CC1)O2 | 188 to 190 °C |
| O=C1C(=O)c2ccccc2C2=C1SCC1(CCN(C3CCN(C(=O)Oc4cccc(C(F)(F)F)c4)CC3)CC1)O2 | 70 to 73 °C |
| O=C1C(=O)c2ccccc2C2=C1SCC1(CCN(CC3CCCO3)CC1)O2 (centres unmarked) | 155 to 159 °C |
| O=C1C(=O)c2ccccc2C2=C1SCC1(CCN(CC3CCCCO3)CC1)O2 (centres unmarked) | 135 to 137 °C |
| O=C1C(=O)c2ccccc2C2=C1SCC1(CCN(Cc3ccc(F)cc3F)CC1)O2 | 104 to 107 °C |
| COc1ccc2c(c1)C1=C(SCC3(CCN(Cc4ccc(F)cc4)CC3)O1)C(=O)C2=O | 196 to 197 °C |
| O=C1C(=O)c2ccc(-c3ccccc3)cc2C2=C1SCC1(CCN(Cc3ccc(F)cc3)CC1)O2 | 197 to 198 °C |
| O=C1C(=O)c2ccccc2C2=C1SCC1(CCN(CCCCc3ccccc3)CC1)O2 | 145 to 147 °C |
| O=C1C(=O)c2ccccc2C2=C1SCC1(CCN(CCCOc3ccc(Cl)cc3)CC1)O2 | 130 to 132 °C |
| O=C1C(=O)c2ccccc2C2=C1SCC1(CCN(CCCOc3ccc(F)cc3)CC1)O2 | 164 to 165 °C |
| CC(C)N1CCC2(CC1)CSC1=C(O2)c2ccccc2C(=O)C1=O | 197 to 198 °C |
| COc1ccc2c(c1)C(=O)C(=O)C1=C2OC2(CCN(Cc3ccc(F)cc3)CC2)CS1 | 219 to 221 °C |
| O=C1C(=O)c2ccccc2C2=C1SCC1(CCN(CCc3ccccc3)CC1)O2 | 117 to 118 °C |
| O=C1C(=O)c2ccc(Br)cc2C2=C1SCC1(CCN(Cc3ccc(F)cc3)CC1)O2 | 210 to 211 °C |
| O=C1C(=O)c2ccccc2C2=C1SCC1(CCN(C3CCCC3O)CC1)O2 (centres unmarked) | 110 to 113 °C |
| CCC(O)CN1CCC2(CC1)CSC1=C(O2)c2ccccc2C(=O)C1=O (centres unmarked) | 180 to 182 °C |
| CC(C)OCC(O)CN1CCC2(CC1)CSC1=C(O2)c2ccccc2C(=O)C1=O (centres unmarked) | 97 to 99 °C |
| O=C1C(=O)c2ccccc2C2=C1SCC1(CCN(CC(O)Cc3ccc(Cl)cc3)CC1)O2 (centres unmarked) | 195 to 196 °C |
| O=C1C(=O)c2ccc(Br)cc2C2=C1SCC1(CCN(C[C@@H](O)Cc3ccccc3)CC1)O2 | 82 to 83 °C |
| CC(C)(C)c1ccc(OC[C@@H](O)CN2CCC3(CC2)CSC2=C(O3)c3cc(Br)ccc3C(=O)C2=O)cc1 | 150 to 152 °C |
| CC(C)(C)c1ccc(OC[C@@H](O)CN2CCC3(CC2)CSC2=C(O3)c3cc(F)ccc3C(=O)C2=O)cc1 | 114 to 116 °C |
| O=C1C(=O)c2ccc(Cl)cc2C2=C1SCC1(CCN(C[C@@H](O)Cc3ccccc3)CC1)O2 | 92 to 96 °C |
| O=C1C(=O)c2ccc(Cl)cc2C2=C1SCC1(CCN(C[C@H](O)Cc3ccccc3)CC1)O2 | 92 to 93 °C |
| O=C1C(=O)c2ccccc2C2=C1SCC1(CCCN(C[C@H](O)Cc3ccccc3)C1)O2 (some centres unmarked) | 65 to 67 °C |

| SMILES | melting point |
| --- | --- |
| O=C1C(=O)c2ccccc2C2=C1SCC1(CCCN(C[C@@H](O)Cc3ccccc3)C1)O2 (some centres unmarked) | 59 to 60 °C |
| CC(C)(C)c1ccc(OC[C@@H](O)CN2CCC(N3CCC4(CC3)CSC3=C(O4)c4ccccc4C(=O)C3=O)CC2)cc1 | 190 to 193 °C |
| CC(C)(C)c1ccc(OC[C@H](O)CN2CCC3(CC2)CSC2=C(O3)c3cc(-c4ccccc4)ccc3C(=O)C2=O)cc1 | 94 to 97 °C |
| COc1ccc2c(c1)C(=O)C(=O)C1=C2OC2(CCN(C[C@@H](O)COc3ccc(C(C)(C)C)cc3)CC2)CS1 | 188 to 190 °C |
| COc1ccc2c(c1)C(=O)C(=O)C1=C2OC2(CCN(C[C@@H](O)Cc3ccccc3)CC2)CS1 | 146 to 147 °C |
| COc1ccc2c(c1)C(=O)C(=O)C1=C2OC2(CCN(C[C@H](O)Cc3ccccc3)CC2)CS1 | 145 to 147 °C |
| COc1ccc2c(c1)C(=O)C(=O)C1=C2OC2(CCN(C[C@H](O)COc3ccc(Cl)cc3)CC2)CS1 | 189 to 191 °C |
| COc1ccc2c(c1)C(=O)C(=O)C1=C2OC2(CCN(C[C@H](O)COc3ccc(F)cc3)CC2)CS1 | 189 to 191 °C |
| COc1ccc2c(c1)C1=C(SCC3(CCN(C[C@H](O)Cc4ccccc4)CC3)O1)C(=O)C2=O | 106 °C |
| COc1ccc2c(c1)C1=C(SCC3(CCN(C[C@@H](O)Cc4ccccc4)CC3)O1)C(=O)C2=O | 110 °C |
| COc1ccc2c(c1)C1=C(SCC3(CCN(C[C@H](O)COc4ccc(Cl)cc4)CC3)O1)C(=O)C2=O | 109 to 110 °C |
| CC(C)(C)c1ccc(OC[C@@H](O)CN2CCC3(CC2)CSC2=C(O3)c3cc(-c4ccccc4)ccc3C(=O)C2=O)cc1 | 151 to 152 °C |
| CC(C)(C)c1ccc(OC[C@@H](O)CN2CCC3(CC2)CSC2=C(O3)c3cc(N4CCOCC4)ccc3C(=O)C2=O)cc1 | 107 to 109 °C |
| COC(=O)Cc1ccc(OC[C@H](O)CN2CCC3(CC2)CSC2=C(O3)c3ccccc3C(=O)C2=O)cc1 | 122 to 124 °C |
| O=C1C(=O)c2ccccc2C2=C1SCC1(CCN(C[C@H](O)COc3ccc4cc(Br)ccc4c3)CC1)O2 | 183 to 184 °C |
| O=C1C(=O)c2ccc(Br)cc2C2=C1SCC1(CCN(C[C@H](O)COc3ccc4cc(Br)ccc4c3)CC1)O2 | 104 to 105 °C |
| O=C1C(=O)c2ccc(F)cc2C2=C1SCC1(CCN(C[C@H](O)Cc3ccccc3)CC1)O2 | 76 to 77 °C |
| O=C1C(=O)c2ccccc2C2=C1SCC1(CCN(C[C@H](O)COc3ccc4ccccc4c3)CC1)O2 | 164 to 167 °C |
| O=C1C(=O)c2ccc(Br)cc2C2=C1SCC1(CCN(C[C@H](O)Cc3ccccc3)CC1)O2 | 82 to 84 °C |
| O=C1C(=O)c2ccc(-c3ccccc3)cc2C2=C1SCC1(CCN(C[C@H](O)COc3ccc(F)cc3)CC1)O2 | 173 to 175 °C |
| O=C1C(=O)c2ccc(-c3ccccc3)cc2C2=C1SCC1(CCN(C[C@H](O)COc3ccc(Cl)cc3)CC1)O2 | 93 to 98 °C |
| COc1ccc2c(c1)C1=C(SCC3(CCN(C[C@H](O)COc4ccc(C(C)(C)C)cc4)CC3)O1)C(=O)C2=O | 153 to 156 °C |
| O=C1C(=O)c2ccccc2C2=C1SCC1(CCN(c3cc(Cl)ncn3)CC1)O2 | 172 to 174 °C |
| Cc1ccc(S(=O)(=O)NC(=O)N2CCC3(CC2)CSC2=C(O3)c3ccccc3C(=O)C2=O)cc1 | 153 to 158 °C |
| CC(C)(C)OC(=O)N1CCC2(CC1)CSC1=C(O2)c2cc(-c3cccc(C(F)(F)F)c3)ccc2C(=O)C1=O | 231 to 233 °C |
| CC(C)(C)OC(=O)N1CCC2(CC1)CSC1=C(O2)c2cc(-c3cccnc3)ccc2C(=O)C1=O | 217 to 219 °C |
| CC(C)(C)OC(=O)N1CCC2(CC1)CSC1=C(O2)c2cc(-c3ccncc3)ccc2C(=O)C1=O | 225 to 227 °C |

| SMILES | melting point |
| --- | --- |
| CC(C)(C)OC(=O)N1CCC2(CC1)CSC1=C(O2)c2cc(N3CCOCC3)ccc2C(=O)C1=O | 243 to 244 °C |
| Cl.O=C1C(=O)c2ccccc2C2=C1SCC1(CCN(C(=O)C3CCNCC3)CC1)O2 | 94 to 100 °C |
| Cl.O=C1C(=O)c2ccccc2C2=C1SCC1(CCN(C(=O)CC3CCNCC3)CC1)O2 | 200 to 202 °C |
| O=C1C(=O)c2ccccc2C2=C1SCC1(CCCCC1)O2 | 194 to 195 °C |
| O=C1C(=O)c2ccccc2C2=C1SCC1(CCOCC1)O2 | 195 to 197 °C |
| O=C1C(=O)c2ccccc2C2=C1SCC1(CCSCC1)O2 | 221 to 223 °C |
| CC(C)(C)OC(=O)NC1CCC2(CC1)CSC1=C(O2)c2ccccc2C(=O)C1=O (centres unmarked) | 224 to 225 °C |
| Cl.NC1CCC2(CC1)CSC1=C(O2)c2ccccc2C(=O)C1=O (centres unmarked) | 256 to 257 °C |
| O=C1C(=O)c2ccc(N3CCCCC3)cc2C2=C1SCC1(CCNCC1)O2 | 300 °C (dec.) |
| O=C1C(=O)c2ccc(-c3ccncc3)cc2C2=C1SCC1(CCNCC1)O2 | 223 to 228 °C |
| O=C1C(=O)c2ccc(-c3cccnc3)cc2C2=C1SCC1(CCNCC1)O2 | 213 to 215 °C |
| O=C1C(=O)c2ccc(-c3cccc(C(F)(F)F)c3)cc2C2=C1SCC1(CCNCC1)O2 | 199 to 203 °C |
| O=C1C(=O)c2ccc(-c3ccc(C(F)(F)F)cc3)cc2C2=C1SCC1(CCNCC1)O2 | 190 to 240 °C |
| O=C1C(=O)c2ccc(-c3ccccc3)cc2C2=C1SCC1(CCNCC1)O2 | 83 to 87 °C |
| O=C1C(=O)c2ccccc2C2=C1SCC1(CCN(C(=O)c3ccc(-n4cccn4)cc3)CC1)O2 | 299 to 300 °C |
| O=C1C(=O)c2ccccc2C2=C1SCC1(CCN(C(=O)c3cccc([N+](=O)[O-])c3)CC1)O2 | 160 to 162 °C |
| O=C1C(=O)c2ccccc2C2=C1SCC1(CCCN(C(=O)c3cccc(Cl)c3)CC1)O2 (centres unmarked) | 98 to 100 °C |
| COc1ccc2c(c1)C(=O)C(=O)C1=C2OC2(CCN(C(=O)c3cccc(Cl)c3)CC2)CS1 | 130 °C (dec.) |
| O=C1C(=O)c2ccc(-c3cccnc3)cc2C2=C1SCC1(CCN(C(=O)c3cccc(Cl)c3)CC1)O2 | 240 to 242 °C |
| O=C1C(=O)c2ccc(-c3ccncc3)cc2C2=C1SCC1(CCN(C(=O)c3cccc(Cl)c3)CC1)O2 | 265 to 267 °C |
| O=C1C(=O)c2ccc(Cl)cc2C2=C1SCC1(CCN(C(=O)c3cccc(Cl)c3)CC1)O2 | 125 to 130 °C |
| O=C1C(=O)c2ccc(Br)cc2C2=C1SCC1(CCN(C(=O)c3cccc(Cl)c3)CC1)O2 | 135 to 140 °C |
| COc1ccc2c(c1)C1=C(SCC3(CCN(C(=O)c4cccc(Cl)c4)CC3)O1)C(=O)C2=O | 125 to 127 °C |
| O=C1C(=O)c2ccccc2C2=C1SCC1(CCN(C(=O)c3nc4ccccc4[nH]3)CC1)O2 | 266 to 268 °C |
| NC(=O)N1CCC2(CC1)CSC1=C(O2)c2ccccc2C(=O)C1=O | 218 to 220 °C |
| O=C1C(=O)c2ccc(Br)cc2C2=C1SCC1(CCN(C(=O)Oc3cccc(C(F)(F)F)c3)CC1)O2 | 210 to 211 °C |
